The values below come from PubChem BioAssay (NCI).

“And” between values parts separate entries of the source, which are not always exact repeats. Equal entries are not always repeated.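 Results reflect a 48-hour exposure of cells in 96-well plates to compound at five concentrations. The concentration for 50% growth inhibition is given as GI50. The concentration for full growth arrest is given as TGI.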

Holding throughout (assay): NCI anticancer screen, dose series, 48 h
Experiment [1] has as its system SK-OV-3 ovarian.
For experiment [2], the system named is CCRF-CEM leukemia.
Experiment [3] has as its system KM12 colon.
Experiment [4] concerns HCT-116 colon.
The test system of experiment [5] is LOX IMVI melanoma.
Experiment [6] relates to RPMI-8226 leukemia.
Experiment [7] concerns HT29 colon.
The subject of experiment [8] is RXF 393 renal.
Experiment [9] has as its system M14 melanoma.
In experiment [10] the test system is OVCAR-5 ovarian.

For `Cc1ccc(S(=O)(=O)Cc2nc(-c3ccc(C(=O)NCc4cccnc4)cc3)oc2C)cc1`, the GI50 in [1] is 14.5 µM; in experiment [2] it was 0.0103 µM; in experiment [3], 0.266 µM; in experiment [4], less than 0.01 µM; in [5], 8.12 µM; in experiment [6] it was 0.0673 µM. Besides, the GI50 in [7] was 0.0784 µM; in experiment [8] it was 27.6 µM; in experiment [9] it was 0.0699 µM. Besides, the TGI in experiment [1], in experiment [2], in experiment [3], in experiment [4], in experiment [5] and in experiment [6] was greater than 100 µM each time. The TGI in experiment [7], in experiment [8], in experiment [9] and in [10] was greater than 100 µM in each case.
On to `CCCCCCCCCCCCOC1C(CNC(=O)C2OC3OC(C)(C)OC3C2NC(=O)CN2CCCCCC2)OC2OC(C)(C)OC21` (centres undefined), for which the GI50 is 16.2 µM in [1]; 4.58 µM in experiment [2]; 5.44 µM in experiment [3]; 4.06 µM in [4]; 3.17 µM in experiment [5]; 3.28 µM in [6]. In addition, the GI50 in experiment [7] is 1.87 µM; in [8] it was 2.87 µM; in [9], 1.79 µM; in experiment [10], 6.44 µM. Besides, the TGI in experiment [1] worked out at 30.8 µM; in experiment [2] it was 15.9 µM; in [3] it was 19.1 µM; in experiment [4], 12.8 µM; in experiment [5], 9.25 µM; in experiment [6] it was 12.5 µM. The TGI in experiment [7] came out at 3.74 µM; in experiment [8], 8.6 µM; in [9], 3.47 µM; in experiment [10], 19.5 µM.
For `Cc1nc2n(c(=O)c1CCN1CCC(c3noc4cc(F)ccc34)CC1)CCCC2`, the GI50 in experiment [1], in [2], in [3], in experiment [4], in [5] and in [6] was greater than 50 µM each time. Further, the GI50 in experiment [7], in experiment [8], in [9] and in [10] was greater than 50 µM throughout. Besides, the TGI in [1], in experiment [2], in [3], in experiment [4], in [5] and in experiment [6] was greater than 50 µM in each case. The TGI in experiment [7], in experiment [8], in experiment [9] and in experiment [10] was greater than 50 µM each time.
Regarding `COc1ccc2c(c1)[n+](=O)c(C(=O)/C=C/c1cc(OC)c(OC)c(OC)c1)c(C)n2[O-]`, the GI50 in experiment [1] was 21.3 µM; in experiment [2] it was 28 µM; in experiment [3], greater than 100 µM; in experiment [4], 16.9 µM; in experiment [5] it was 16 µM; in experiment [6], 47.2 µM. Besides, the GI50 in [7] was greater than 100 µM; in experiment [8] it was 6.47 µM; in experiment [9], 23.3 µM; in experiment [10], 20.8 µM. The TGI is 51.7 µM in experiment [1]; greater than 100 µM in [2]; greater than 100 µM in experiment [3]; 65.5 µM in experiment [4]; 47.6 µM in experiment [5]; greater than 100 µM in experiment [6]. Further, the TGI was greater than 100 µM in experiment [7], 21.5 µM in experiment [8], greater than 100 µM in experiment [9] and 62.9 µM in [10].
`Cc1c(NC(=O)OC[C@@H]2COCCN2)cn2ncnc(Nc3ccc4c(cnn4Cc4cccc(F)c4)c3)c12`: the GI50 in experiment [1] is 1.09 µM and 0.711 µM; in experiment [2] it was > 10 µM and 11 µM; in experiment [3], > 10 µM and 11.5 µM; in [4] it was 7.82 µM and 5.22 µM; in experiment [5] it was 5.8 µM and 5.39 µM; in [6], 5.35 µM and 6.35 µM. Besides, the GI50 was 6.38 µM and 4.65 µM in [7]; 2.89 µM and 4.15 µM in [8]; 9.45 µM and 4.41 µM in [9]; > 10 µM and 8.82 µM in experiment [10]. Moreover, the TGI is > 10 µM and 16.6 µM in experiment [1]; > 10 µM and 34.3 µM in [2]; > 10 µM and 25.5 µM in [3]; > 10 µM and 18.7 µM in [4]; > 10 µM and 19.4 µM in experiment [5]; > 10 µM and 28.2 µM in experiment [6]. The TGI in experiment [7] is > 10 µM and 16.9 µM; in [8] it was > 10 µM and 15.3 µM; in experiment [9] it was > 10 µM and 16.3 µM; in [10], > 10 µM and 21.4 µM.
As for `CCCCC#CC#Cc1cccc(=O)o1`, the GI50 is 27.3 µM in [1]; 15.4 µM in [2]; 13.5 µM in experiment [3]; 14.8 µM in experiment [4]; 16.2 µM in experiment [5]; 10.5 µM in [6]. Besides, the GI50 in experiment [7] was 13.5 µM; in experiment [8], 32.9 µM; in experiment [9], 21.7 µM; in experiment [10], 22.3 µM. Also, the TGI was 46.7 µM in experiment [1]; greater than 100 µM in [2]; 27.4 µM in [3]; 28.3 µM in experiment [4]; 32.3 µM in experiment [5]; 90.8 µM in [6]. The TGI in experiment [7] was 36.1 µM; in experiment [8] it was greater than 100 µM; in experiment [9], 40.6 µM; in experiment [10] it was 46.6 µM.
As for `COc1ccc(-c2csc(-c3cc(Cl)cc(Cl)c3Cl)n2)cc1`, the GI50 in [1] was 96.8 µM; in [2] it was greater than 100 µM; in [3], 48.1 µM; in experiment [4], greater than 100 µM; in experiment [5], greater than 100 µM; in experiment [6], 67 µM. Further, the GI50 was 47.5 µM in experiment [7], 46.4 µM in experiment [8], greater than 100 µM in experiment [9] and greater than 100 µM in experiment [10]. In addition, the TGI in experiment [1], in experiment [2], in experiment [3], in [4], in [5] and in experiment [6] was greater than 100 µM throughout. Further, the TGI in experiment [7], in experiment [8], in experiment [9] and in experiment [10] was greater than 100 µM in each case.
